ChEMBL document CHEMBL1135103, “Design and synthesis of a piperazinylalkylisoxazole library for subtype selective dopamine receptor ligands” (Bioorg Med Chem Lett, 2002)

Experiments:
Test in all cases: biochemical
[1] = target: D(2) dopamine receptor (Homo sapiens, UniProt P14416)
Description: Displacement of the radioligand [3H]spiperone from the cloned human Dopamine receptor D2 long expressed in CHO cells

[2] = target: D(3) dopamine receptor (Homo sapiens, UniProt P35462)
Description: Displacement of the radioligand [3H]YM-09151-2 from cloned human Dopamine receptor D3 expressed in CHO cells

[3] = target: T1, D(4) dopamine receptor (Homo sapiens, UniProt P21917)
T1 sequence (P21917 whole entry): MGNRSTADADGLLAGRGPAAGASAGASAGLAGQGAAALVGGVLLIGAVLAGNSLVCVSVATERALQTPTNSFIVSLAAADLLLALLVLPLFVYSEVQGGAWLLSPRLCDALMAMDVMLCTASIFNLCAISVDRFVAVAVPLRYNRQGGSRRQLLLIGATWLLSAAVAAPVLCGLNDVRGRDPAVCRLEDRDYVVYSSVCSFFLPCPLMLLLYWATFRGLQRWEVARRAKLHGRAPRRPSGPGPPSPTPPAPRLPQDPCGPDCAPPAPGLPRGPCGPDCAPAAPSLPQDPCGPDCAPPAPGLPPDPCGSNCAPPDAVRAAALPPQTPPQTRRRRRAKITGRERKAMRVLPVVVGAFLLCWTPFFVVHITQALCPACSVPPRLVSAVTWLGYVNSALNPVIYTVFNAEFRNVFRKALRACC
Description: Displacement of the radioligand [3H]spiperone from the cloned human dopamine receptor D4 expressed in CHO cells

Sequence of D(3) dopamine receptor (P35462 whole entry): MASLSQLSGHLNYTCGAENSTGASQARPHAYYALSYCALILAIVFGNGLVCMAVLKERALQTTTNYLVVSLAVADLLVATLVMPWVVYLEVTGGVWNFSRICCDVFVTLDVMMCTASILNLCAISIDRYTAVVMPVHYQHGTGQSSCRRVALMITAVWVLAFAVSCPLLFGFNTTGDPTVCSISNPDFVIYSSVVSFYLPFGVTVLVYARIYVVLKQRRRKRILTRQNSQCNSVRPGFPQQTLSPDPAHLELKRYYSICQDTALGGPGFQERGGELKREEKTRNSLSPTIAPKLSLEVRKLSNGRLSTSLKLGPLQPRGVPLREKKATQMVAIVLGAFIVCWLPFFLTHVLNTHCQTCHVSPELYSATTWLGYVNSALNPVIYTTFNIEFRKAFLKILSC
Sequence of D(2) dopamine receptor (P14416 whole entry): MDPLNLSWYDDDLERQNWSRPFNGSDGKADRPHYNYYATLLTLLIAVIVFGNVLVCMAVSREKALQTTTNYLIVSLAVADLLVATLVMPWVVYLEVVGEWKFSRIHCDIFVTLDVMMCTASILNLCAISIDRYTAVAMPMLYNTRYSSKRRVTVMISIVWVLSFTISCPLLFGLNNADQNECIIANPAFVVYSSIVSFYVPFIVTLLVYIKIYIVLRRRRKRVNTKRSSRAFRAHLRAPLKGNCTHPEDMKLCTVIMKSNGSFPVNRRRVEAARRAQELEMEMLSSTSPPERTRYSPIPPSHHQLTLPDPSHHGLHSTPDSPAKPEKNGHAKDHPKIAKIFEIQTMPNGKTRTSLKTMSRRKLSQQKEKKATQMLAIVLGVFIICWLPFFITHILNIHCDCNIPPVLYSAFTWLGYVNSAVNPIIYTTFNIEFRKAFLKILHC

SMILES	Ki [1]	Ki [2]	Ki [3]
Fc1ccc(-c2cc(CCCCN3CCN(C(c4ccccc4)c4ccccc4)CC3)on2)cc1	1460 nM	30 nM	1350 nM
COc1ccc(-c2cc(CCCCN3CCN(c4ccccc4)CC3)on2)cc1OC	3390 nM	24 nM	774 nM
c1ccc(N2CCN(CCCCc3cc(-c4cccs4)no3)CC2)cc1	4140 nM	15 nM	117 nM
CCOc1ccccc1N1CCN(CCCCc2cc(-c3ccccc3)no2)CC1	341 nM	9 nM	34 nM
COc1ccc(-c2cc(CCCCN3CCN(c4ccccc4)CC3)on2)c(OC)c1	2200 nM	16 nM	76 nM
CCOc1ccccc1N1CCN(CCCCc2cc(-c3ccc(OC)c(OC)c3)no2)CC1	119 nM	2.6 nM	28 nM
c1ccc(C(c2ccccc2)N2CCN(CCCCc3cc(-c4cccs4)no3)CC2)cc1	620 nM	52 nM	2150 nM
Cc1ccccc1N1CCN(CCCCc2cc(-c3cccs3)no2)CC1	2110 nM	163 nM	465 nM
C(=C\c1cc(CCCCN2CCN(c3ccccc3)CC2)on1)/c1ccccc1	9720 nM	27 nM	346 nM
COc1ccc(-c2cc(CCCCN3CCN(c4ccccc4C)CC3)on2)cc1OC	1400 nM	38 nM	413 nM
Cc1ccccc1N1CCN(CCCCc2cc(-c3ccccc3)no2)CC1	6510 nM	292 nM	683 nM
COc1ccccc1N1CCN(CCCCc2cc(-c3ccccc3)no2)CC1	1730 nM	9.5 nM	198 nM
COc1ccc(-c2cc(CCCCN3CCN(C(c4ccccc4)c4ccccc4)CC3)on2)cc1OC	2620 nM	20 nM	2440 nM
CCOc1ccccc1N1CCN(CCCCc2cc(-c3cccc([N+](=O)[O-])c3)no2)CC1	95 nM	19 nM	51 nM
COc1ccccc1N1CCN(CCCCc2cc(/C=C/c3ccccc3)no2)CC1	964 nM	15 nM	88 nM
CCOc1ccccc1N1CCN(CCCCc2cc(-c3cccs3)no2)CC1	194 nM	3.9 nM	12 nM
Fc1ccccc1N1CCN(CCCCc2cc(/C=C/c3ccccc3)no2)CC1	585 nM	10 nM	58 nM

Second part, the compound after the results:

Ki [1]	Ki [2]	Ki [3]	SMILES
726 nM	4.7 nM	21 nM	COc1ccccc1N1CCN(CCCCc2cc(-c3cccs3)no2)CC1
3370 nM	18 nM	541 nM	c1ccc(-c2cc(CCCCN3CCN(c4ccccc4)CC3)on2)cc1
418 nM	5.2 nM	257 nM	COc1ccc(-c2cc(CCCCN3CCN(c4ccccc4OC)CC3)on2)cc1OC
2530 nM	12 nM	96 nM	Fc1ccc(-c2cc(CCCCN3CCN(c4ccccc4)CC3)on2)cc1
1470 nM	60 nM	1700 nM	O=[N+]([O-])c1cccc(-c2cc(CCCCN3CCN(c4ccccc4)CC3)on2)c1
491 nM	40 nM	603 nM	C(=C\c1cc(CCCCN2CCN(C(c3ccccc3)c3ccccc3)CC2)on1)/c1ccccc1
295 nM	6 nM	50 nM	COc1ccccc1N1CCN(CCCCc2cc(-c3cccc([N+](=O)[O-])c3)no2)CC1
3830 nM	16 nM	1120 nM	COc1ccc(-c2cc(CCCCN3CCN(C(c4ccccc4)c4ccccc4)CC3)on2)c(OC)c1
1520 nM	19 nM	2310 nM	O=[N+]([O-])c1cccc(-c2cc(CCCCN3CCN(C(c4ccccc4)c4ccccc4)CC3)on2)c1
440 nM	6.5 nM	34 nM	COc1ccc(-c2cc(CCCCN3CCN(c4ccccc4OC)CC3)on2)c(OC)c1
486 nM	15 nM	2240 nM	c1ccc(-c2cc(CCCCN3CCN(C(c4ccccc4)c4ccccc4)CC3)on2)cc1
5150 nM	20 nM	233 nM	COc1ccc(-c2cc(CCCCN3CCN(c4ccccc4F)CC3)on2)cc1OC
321 nM	23 nM	33 nM	COc1ccccc1N1CCN(CCCCc2cc(-c3ccc(F)cc3)no2)CC1
